# Experimental data taken from patent publication US10508114B2, “Spiro-isoquinoline-4,4′-piperidine compounds having multimodal activity against pain” (ESTEVE PHARMACEUTICALS, S.A., priority 2015, dated 2019).
# Test system: human σ1 receptor and human μ-opioid receptor
# Experiment: Human σ1 receptor and human μ-opioid receptor radioligand binding assays, reported on one dual scale
# Parameters: key to μ and σ1 dual (binding expressed as Ki): +: Both Ki-μ and Ki-σ1>500 nM; ++: One Ki<500 nM while the other Ki is >=500 nM; +++: Both Ki-μ and Ki-σ1<500 nM; ++++: Both Ki-μ and Ki-σ1<100 nM
# Details: combined class for both receptors; [3H](+)-pentazocine on transfected HEK-293 membranes (σ1), [3H]-DAMGO on transfected CHO-K1 membranes (μ)
# Protocol: Human σ1 Receptor Radioligand Assay
# To investigate binding properties of test compounds to human σ1 receptor, transfected HEK-293 membranes and [^3H](+)-pentazocine (Perkin Elmer, NET-1056), as the radioligand, were used. The assay was carried out with 7 μg of membrane suspension, 5 nM of [^3H](+)-pentazocine in either absence or presence of either buffer or 10 μM Haloperidol for total and non-specific binding, respectively. Binding buffer contained Tris-HCl 50 mM at pH 8. Plates were incubated at 37° C. for 120 minutes. After the incubation period, the reaction mix was then transferred to MultiScreen HTS, FC plates (Millipore), filtered and plates were washed 3 times with ice-cold 10 mM Tris-HCL (pH7.4). Filters were dried and counted at approximately 40% efficiency in a MicroBeta scintillation counter (Perkin-Elmer) using EcoScint liquid scintillation cocktail
# Human μ-Opioid Receptor Radioligand Assay
# To investigate binding properties of test compounds to human μ-opioid receptor, transfected CHO-K1 cell membranes and [^3H]-DAMGO (Perkin Elmer, ES-542-C), as the radioligand, were used. The assay was carried out with 20 μg of membrane suspension, 1 nM of [^3H]-DAMGO in either absence or presence of either buffer or 10 μM Naloxone for total and non-specific binding, respectively. Binding buffer contained Tris-HCl 50 mM, MgCl2 5 mM at pH 7.4. Plates were incubated at 27° C. for 60 minutes. After the incubation period, the reaction mix was then transferred to MultiScreen HTS, FC plates (Millipore), filtered and plates were washed 3 times with ice-cold 10 mM Tris-HCL (pH 7.4). Filters were dried and counted at approximately 40% efficiency in a MicroBeta scintillation counter (Perkin-Elmer) using EcoScint liquid scintillation cocktail.
row,SMILES,μ and σ1 dual (binding expressed as Ki)
1,"O=C1NCC2(CCN(Cc3ccccc3)CC2)c2ccccc21 [Example 1, 1′-Benzyl-2,3-dihydro-1H-spiro[isoquinoline-4,4′-piperidin]-1-one]",++
2,"CN1CC2(CCN(Cc3ccccc3)CC2)c2ccccc2C1=O [Example 2, 1′-Benzyl-2-methyl-2,3-dihydro-1H-spiro[isoquinoline-4,4′-piperidin]-1-one]",++
3,"CCN1CC2(CCN(Cc3ccccc3)CC2)c2ccccc2C1=O [Example 3, 1′-Benzyl-2-ethyl-2,3-dihydro-1H-spiro[isoquinoline-4,4′-piperidin]-1-one]",++
4,"O=C1c2ccccc2C2(CCN(Cc3ccccc3)CC2)CN1CCO [Example 7, 1′-Benzyl-2-(2-hydroxyethyl)-2,3-dihydro-1H-spiro[isoquinoline-4,4′-piperidin]-1-one]",++
5,"CC(=O)N1Cc2ccccc2C2(CCN(CCc3ccccc3)CC2)C1 [Example 10, 1-(1′-Phenethyl-1H-spiro[isoquinoline-4,4′-piperidine]-2(3H)-yl)ethanone]",++
6,"O=C1c2ccccc2C2(CCN(CCc3ccccc3)CC2)CN1CCO [Example 11, 2-(2-Hydroxyethyl)-1′-phenethyl-2,3-dihydro-1H-spiro[isoquinoline-4,4′-piperidin]-1-one]",++

# Same assay, conditions: combined class for both receptors; [3H](+)-pentazocine on transfected HEK-293 membranes (σ1), [3H]-DAMGO on transfected CHO-K1 membranes (μ); read-out: μ and σ1 dual (binding expressed as Ki)
row,SMILES,Ki
1,"O=C1NCC2(CCN(CCc3ccccc3)CC2)c2ccccc21 [Example 4, 1′-Phenethyl-2,3-dihydro-1H-spiro[isoquinoline-4,4′-piperidin]-1-one]",< 500 nM
2,"CN1CC2(CCN(CCc3ccccc3)CC2)c2ccccc2C1=O [Example 5, 2-Methyl-1′-phenethyl-2,3-dihydro-1H-spiro[isoquinoline-4,4′-piperidin]-1-one]",< 500 nM
3,"CCN1CC2(CCN(CCc3ccccc3)CC2)c2ccccc2C1=O [Example 6, 2-ethyl-1′-phenethyl-2,3-dihydro-1H-spiro[isoquinoline-4,4′-piperidin]-1-one]",< 500 nM
4,"c1ccc(CCN2CCC3(CC2)CNCc2ccccc23)cc1 [Example 8, 1′-Phenethyl-2,3-dihydro-1H-spiro[isoquinoline-4,4′-piperidine]]",< 500 nM
5,"CN1Cc2ccccc2C2(CCN(CCc3ccccc3)CC2)C1 [Example 9, 2-Methyl-1′-phenethyl-2,3-dihydro-1H-spiro[isoquinoline-4,4′-piperidine]]",< 500 nM
